The target of one series is T1, human TRPM8 (Homo sapiens, UniProt Q7Z2W7).
T1 construct: The full-length human TRPM8 gene was amplified from plasmid RC220615 (manufactured by Origene) using a PCR method; host or cells: Flp-In T-REx 293 cells ('Flp-In293293 cells' [sic]), pcDNA5/FRT/TO, doxycycline-induced
Kind of series: Evaluation of cooling intensity (TRPM8 activity evaluation), calcium fluorescence in human TRPM8 stable expression cells. The class given is cell-based. The note with it: TRPM8 activation action, Fluo4-AM fluorescence, 0.1 μM to 1000 μM, 32° C. Here is the method:
The full-length human TRPM8 gene was amplified from plasmid RC220615 (manufactured by Origene) using a PCR method. The obtained PCR product was subcloned into pcDNA5/FRT/TO (manufactured by Thermo Fisher Scientific K.K.), and then it was introduced into Flp-In293293 cells (manufactured by Thermo Fisher Scientific K.K.) by using a Flp-InT-REx system (manufactured by Thermo Fisher Scientific K.K.), so that a human TRPM8 stable expression cell line was prepared.
The cultured human TRPM8 stable expression cells were seeded at a ratio of 50,000 cells/well to a poly-D-lysine-coated 96-well microplate (manufactured by Corning Incorporated), 1 μg/mL of doxycycline (manufactured by Takara Bio Inc.) was added thereto, and then the seeded cells were cultured at 37° C. for one night, so that the expression of the human TRPM8 was induced.
The culture solution was replaced with a buffer solution, and then, a fluorescent calcium indicator (Fluo4-AM: manufactured by Dojindo Laboratories) was added thereto, the cells were incubated at 37° C. for 30 minutes, and they were transferred to a fluorescent microplate reader (FlexStation3: manufactured by Molecular Devices, LLC.). Each of the compounds obtained in Examples and comparative compounds was added in a final concentration range of 0.1 μM to 1000 μM, and the changes in fluorescence having a wavelength of 525 nm when excited at a wavelength of 485 nm were measured at a device temperature of 32° C., and then EC50 values were determined.

The next series concerns oral cavity. Kind of series: Sensory evaluation of 30 ppm aqueous solutions in the mouth by four flavorists. The class given is in vivo, human. Here is the method:
The evaluation was performed by four flavorists. The aqueous solution was taken into the mouth and spat out after the mouth was rinsed, and cooling intensity, cool-feeling persistence, and quality of a cool-feeling in the oral cavity were evaluated.

SMILES strings stand for the structures. pEC50: −log10 of the molar value. Some results are limits rather than exact numbers.

T1 sequence (Q7Z2W7 whole entry): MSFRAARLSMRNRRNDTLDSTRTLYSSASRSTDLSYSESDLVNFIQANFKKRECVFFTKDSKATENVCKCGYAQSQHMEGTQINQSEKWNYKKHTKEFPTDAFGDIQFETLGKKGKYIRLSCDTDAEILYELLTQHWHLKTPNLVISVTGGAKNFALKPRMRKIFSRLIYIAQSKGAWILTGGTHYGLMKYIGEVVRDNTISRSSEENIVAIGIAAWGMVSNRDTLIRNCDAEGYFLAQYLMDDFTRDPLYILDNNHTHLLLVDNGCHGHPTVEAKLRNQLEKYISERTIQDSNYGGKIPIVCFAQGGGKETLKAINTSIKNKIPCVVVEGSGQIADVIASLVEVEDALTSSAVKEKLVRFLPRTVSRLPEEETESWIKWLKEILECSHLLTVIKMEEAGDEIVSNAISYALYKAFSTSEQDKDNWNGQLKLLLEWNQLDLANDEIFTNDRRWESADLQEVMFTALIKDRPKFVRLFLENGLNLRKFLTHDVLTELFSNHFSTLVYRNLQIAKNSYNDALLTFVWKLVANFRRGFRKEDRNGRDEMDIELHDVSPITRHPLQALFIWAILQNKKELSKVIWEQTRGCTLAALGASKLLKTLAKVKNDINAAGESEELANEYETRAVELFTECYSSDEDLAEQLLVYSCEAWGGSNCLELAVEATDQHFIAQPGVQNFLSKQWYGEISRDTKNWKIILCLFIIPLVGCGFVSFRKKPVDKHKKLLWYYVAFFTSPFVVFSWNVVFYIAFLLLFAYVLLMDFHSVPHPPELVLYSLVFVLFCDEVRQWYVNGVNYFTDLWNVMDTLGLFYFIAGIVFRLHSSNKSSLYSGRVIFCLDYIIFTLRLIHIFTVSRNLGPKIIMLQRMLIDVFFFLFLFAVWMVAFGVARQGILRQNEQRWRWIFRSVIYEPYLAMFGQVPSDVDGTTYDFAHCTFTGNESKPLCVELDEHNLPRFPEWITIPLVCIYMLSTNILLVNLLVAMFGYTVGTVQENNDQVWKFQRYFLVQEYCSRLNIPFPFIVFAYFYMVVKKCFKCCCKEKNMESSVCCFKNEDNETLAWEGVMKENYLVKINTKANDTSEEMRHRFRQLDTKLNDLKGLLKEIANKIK

What is called pEC50 is the negative decadic logarithm of the EC50, by convention in mol/L. In the case of `CNC(=O)[C@@H]1[C@@H](C)CCCC1(C)C` (stereo in doubt) [N,2,2,6-tetramethylcyclohexanecarboxamide, reference compound], the pEC50 on human TRPM8 is 3.96.
Still for that read-out and setting: with `C[C@H]1CCCC(C)(C)[C@@H]1C(=O)NCC(=O)c1ccccc1` [(1R)-10-10, (1R, 6S)-2,2,6-trimethyl-N-(2-oxo-2-phenylethyl) cyclohexane-1-carboxamide] the figure was 5.95.
What is called melting point is the temperature, or range, at which the solid turns liquid. The compound `C[C@H]1CCCC(C)(C)[C@@H]1C(=O)NCCc1ccccc1` [(1R, 6S)-10-1, (1R, 6S)-2,2,6-trimethyl-N-phenethylcyclohexane-1-carboxamide] gave a melting point of 79 to 82 °C. In the series with oral cavity (30 ppm aqueous solution), the cool-feeling persistence is at least 30 min and the cooling intensity entry is “very strong”. Further, in the series with oral cavity (30 ppm aqueous solutions), the “cooling intensity compared with N,2,2,6-tetramethylcyclohexanecarboxamide, 1-menthol and WS-3” value was “apparently stronger”; the “cooling intensity compared with WS-5” value is “stronger”. Besides, the pEC50 at human TRPM8 was 6.23.
Compound `C[C@H]1CCCC(C)(C)[C@@H]1C(=O)NCC(O)c1ccccc1` (stereo partly drawn) [(1R, 6S)-10-4, (1R, 6S)-N-(2-hydroxy-2-phenylethyl)-2,2,6-trimethylcyclohexane-1-carboxamide] returned a melting point of 95 to 98 °C. In addition, the pEC50 on human TRPM8 is 6.22.
Take `C[C@H]1CCCC(C)(C)[C@@H]1C(=O)NC[C@H](O)c1ccccc1` [(1R, 6S)-10-5, (1R, 6S)-N-((R)-2-hydroxy-2-phenylethyl)-2,2,6-trimethylcyclohexane-1-carboxamide]: the negative-log EC50 (pEC50) on human TRPM8 is 5.40.
With `C[C@H]1CCCC(C)(C)[C@@H]1C(=O)NC[C@@H](O)c1ccccc1` [(1R, 6S)-10-6, (1R, 6S)-N-((S)-2-hydroxy-2-phenylethyl)-2,2,6-trimethylcyclohexane-1-carboxamide], the melting point lay in the range of 107 to 111 °C. At human TRPM8, the pEC50 is 6.26.
In turn, `C[C@H]1CCCC(C)(C)[C@@H]1C(=O)NCCc1ccc(O)cc1` [(1R, 6S)-10-8, (1R, 6S)-N-(4-hydroxyphenethyl)-2,2,6-trimethylcyclohexane-1-carboxamide] gave a melting point of 178 to 180 °C. Moreover, the pEC50 on human TRPM8 was 5.92.
For `C[C@H]1CCCC(C)(C)[C@@H]1C(=O)NCCc1ccc(O)c(O)c1` [(1R, 6S)-10-12], in that order: 75 to 77 °C and 5.59.
Consider `COc1ccc(CCNC(=O)[C@@H]2[C@@H](C)CCCC2(C)C)cc1OC` [(1R, 6S)-10-13], for which the pEC50 on human TRPM8 is 5.11.
The same measure, in the same setting: under `C[C@H]1CCCC(C)(C)[C@@H]1C(=O)NCc1cccs1` [(1R, 6S)-10-22] stands 5.71; under `C[C@H]1CCCC(C)(C)[C@@H]1C(=O)NCc1ccsc1` [(1R, 6S)-10-23], 5.46.
With `C[C@H]1CCCC(C)(C)[C@@H]1C(=O)Nc1ccc(O)cc1` [(1R, 6S)-10-27], on human TRPM8, the pEC50 is 5.21.
Consider `COc1ccc(NC(=O)[C@@H]2[C@@H](C)CCCC2(C)C)cc1` [(1R, 6S)-10-28], for which the pEC50 at human TRPM8 was 5.80.
The same measure, in the same setting: under `C[C@H]1CCCC(C)(C)[C@@H]1C(=O)Nc1ccc2c(c1)OCO2` [(1R, 6S)-10-33] stands 5.43.
The same measure, in the same setting: with `CC(=O)c1ccc(NC(=O)[C@@H]2[C@@H](C)CCCC2(C)C)cc1` [(1R, 6S)-10-35] the figure was 5.92.
In turn, `C[C@H]1CCCC(C)(C)[C@@H]1C(=O)Nc1ccc(CCO)cc1` [(1R, 6S)-10-36] displayed a melting point of 85 to 87 °C. In addition, the pEC50 at human TRPM8 is 5.78.
Turning to `COC(=O)c1ccc(NC(=O)[C@@H]2[C@@H](C)CCCC2(C)C)cc1` [(1R, 6S)-10-38], the pEC50 on human TRPM8 is 5.24.
The same measure, in the same setting: with `CSc1ccc(NC(=O)[C@@H]2[C@@H](C)CCCC2(C)C)cc1` [(1R, 6S)-10-41] the figure was 5.97; with `C[C@H]1CCCC(C)(C)[C@@H]1C(=O)Nc1ccc(CC#N)cc1` [(1R, 6S)-10-42], 5.75.
On the same count and under the same terms, with `C[C@H]1CCCC(C)(C)[C@@H]1C(=O)Nc1ccncc1` [(1R, 6S)-10-43] the figure was 4.82; with `C[C@H]1CCCC(C)(C)C1C(=O)OC[C@@H](O)c1ccccc1` (stereo partly drawn) [(1R, 6S)-10-51], 5.76; with `C[C@H]1CCCC(C)(C)[C@H]1C(=O)NCC(=O)c1ccccc1` [(1S)-10-10, (1S, 6S)-2,2,6-trimethyl-N-(2-oxo-2-phenylethyl) cyclohexane-1-carboxamide], 5.68.
Turning to `C[C@@H]1CCCC(C)(C)[C@H]1C(=O)NCC(O)c1ccccc1` (stereo partly drawn) [(1S, 6R)-10-4, (1S, 6R)-N-(2-hydroxy-2-phenylethyl)-2,2,6-trimethylcyclohexane-1-carboxamide], the melting point fell in the range of 96 to 99 °C. Also, the pEC50 at human TRPM8 was 5.20.
The matching figures for `C[C@@H]1CCCC(C)(C)[C@H]1C(=O)NC[C@H](O)c1ccccc1` [(1S, 6R)-10-5, (1S, 6R)-N-((R)-2-hydroxy-2-phenylethyl)-2,2,6-trimethylcyclohexane-1-carboxamide]: 105 to 110 °C and 5.11.
With `C[C@@H]1CCCC(C)(C)[C@H]1C(=O)NC[C@@H](O)c1ccccc1` [(1S, 6R)-10-6, (1S, 6R)-N-((S)-2-hydroxy-2-phenylethyl)-2,2,6-trimethylcyclohexane-1-carboxamide], the pEC50 on human TRPM8 is 5.22.
In the case of `C[C@@H]1CCCC(C)(C)[C@H]1C(=O)NCCc1ccc(O)cc1` [(1S, 6R)-10-8, (1S, 6R)-N-(4-hydroxyphenethyl)-2,2,6-trimethylcyclohexane-1-carboxamide], the melting point fell in the range of 180 to 182 °C. The negative-log EC50 (pEC50) on human TRPM8 was 5.23.
Consider `COc1ccc(CNC(=O)C2[C@@H](C)CCCC2(C)C)cc1` (stereo partly drawn) [(1S, 6R)-10-28], for which the pEC50 on human TRPM8 was 5.62.
Still for that read-out and setting: under `CCNC(=O)[C@@H]1C[C@H](C)CCC1C(C)C` (stereo partly shown) [WS-3, reference compound] stands 5.79; under `CCOC(=O)CNC(=O)[C@@H]1C[C@H](C)CCC1C(C)C` (stereo partly shown) [WS-5, reference compound], 6.14; under `CCNC(=O)C(C)(C(C)C)C(C)C` [WS-23, reference compound], 4.64.

These data come from patent US11344488B2 (TAKASAGO INTERNATIONAL CORPORATION, priority 2017, dated 2022).
